Values quoted from earlier work as cited in PMC4629110 (Acta Pharmaceutica Sinica. B, 2014).

System: BuChE
Details: read-out: IC50 BuChE reported in the literature

CC(C)NP(=O)(NC(C)C)OP(=O)(NC(C)C)NC(C)C [ISO-OMPA, tetraisopropyl pyrophosphoramide]
IC50: 980 nM
